According to PMC4818977 (ChemMedChem, 2016):
Where two headings read alike, the source gives them in different places.

Experiments:
FimH lectin domain = FimH lectin domain (Escherichia coli, UniProt P08191); set-up: species or system uropathogenic E. coli (UPEC); conditions: melting temperature of FimH lectin domain, relative binding strength
FimH = FimH (Escherichia coli, UniProt Q1R2J4); format: cell-based, uropathogenic E. coli (UPEC) strain UTI89; conditions: for HAI: hemagglutination inhibition titer (EC>90, Figure 5 legend)
UPEC biofilm formation = assay: biofilm prevention assay; format: cell-based, uropathogenic E. coli (UPEC) strain UTI89; conditions: read-out: Biofilm IC50
[1] = test system: UTI89 chronically infected mice; assay: murine model of chronic UTI; format: in vivo; conditions: 50 mgkg^−1 p.o., 10% cyclodextrin, 6 h post-dosing
[2] = in vivo mouse PK, urine mannoside concentration; conditions: mice, 50 mgkg^−1 oral gavage, 10% cyclodextrin, 1 h post-dosing
[3] = i.v./p.o. crossover PK study in rat; format: in vivo

Sequence of FimH lectin domain (P08191 22-179): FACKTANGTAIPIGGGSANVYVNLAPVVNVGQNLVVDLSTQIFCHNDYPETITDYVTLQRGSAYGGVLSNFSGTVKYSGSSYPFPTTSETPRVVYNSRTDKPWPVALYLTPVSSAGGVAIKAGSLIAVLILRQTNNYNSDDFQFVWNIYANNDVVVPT

What does the source list for `COC(=O)c1cccc(-c2ccc(O[C@H]3O[C@H](CO)[C@@H](O)[C@H](O)[C@@H]3O)cc2)c1` [Compound 2]?
DSF Tm (FimH lectin domain): 73.4 °C; HAI (FimH): 1.0 µM; IC50 (UPEC biofilm formation; biofilm prevention): 940 nM

Which results are given for `Cc1cc(-c2ccc3cc[nH]c(=O)c3c2)ccc1O[C@H]1O[C@H](CO)[C@@H](O)[C@H](O)[C@@H]1O` [Compound 22, 2-methyl-4-(1-oxo-1,2-dihydroisoquinolin-7-yl)phenyl α-D-mannopyranoside]?
DSF Tm (FimH lectin domain): 75.5 °C; HAI (FimH): 0.031 µM; increase in activity in HA assay relative to 16 and 17, respectively (FimH; ortho-methyl matched pairs): fourfold; additional drop in CFUs per bladder relative to 5, 7 (and 17b) [1]: 10 fold; IC50 (UPEC biofilm formation; Escherichia coli): 130 nM; initial urine concentration [2]: elevated relative to 5; Rat F ([3]; 10 mgkg^−1 oral (p.o.) dose, 10% cyclodextrin formulation): 7.0%; Rat CL ([3]; calculated from a 10 mgkg^−1 oral (p.o.) dose, 10% cyclodextrin formulation): 408 mLmin^−1kg^−1; half-life ([3]; rat, in vivo, po, 10 mgkg^−1): < 3 h
